Test results reported in patent EP0099122A2, “Compositions comprising pepstatin and an histamine H2-receptor antagonist having an enhanced antiulcer activity” (Bristol-Myers Company, priority 1982, dated 1984).
Marks after values point to notes of the source that are not given here.

Tests used:
Heidenhain Pouch Dog = test: Gastric antisecretory activity in the Heidenhain Pouch Dog; format: in vivo, dogs; details: 95% confidence limits in parentheses; for ED50: Canis lupus familiaris
Protocol: Determination of Gastric Antisecretory […] in the Heidenhain Pouch Dog Prior to surgery, hematology and blood chemistry profiles are obtained and an assessment made as to the general health of selected female dogs. Dogs are vaccinated with Tissue […]-Moore) and housed in general animal quarters for four weeks' observation so incipient diseases may become apparent. Dogs are fasted with water ad libitum 24 hours prior to surgery. […] Subsequent anesthesia is maintained with methoxy- flurane (Pitman-Moore). A mid-line linea alba incision from xiphoid to umbilicus provides good exposure and ease of closure. The stomach is pulled up into the operative fields the greater curvature stretched out at multiple points and clamps placed along the selected line of incision. The pouch is made from the corpus of the stomach so that true parietal cell juice is obtained. About 30% of the corpus volume is resected. The cannula is made of light-weight, biologically-inert material such as nylon or Delrin with dimensions and attachments after DeVito and […] fJ. Appl. Physiol., 14, 138 (1959)]. Post operatively, dogs are medicated with antibiotics and an analgesic. They are allowed 2-3 months for recovery. Experiments are carried out in the following way: […] The dogs are placed in a sling and a saphenous vein cannulated for drug administration. Histamine as the base (100 μg/kg/hr) and chlorpheniramine maleate (0.25 mg/kg/hr) are infused continuously (in a volume of 6 mL/hr) with a Harvard infusion pump. Ninety minutes' infusion are allowed for the dogs to reach a steady state of acid output. At this time the drug or normal saline (control) is administered concomitantly with the secretagogue in a volume of 0.5 mL/kg over a 30 second period. When oral studies are to be carried out, the drug is administered via gastric gavage in a volume of 5 mL/kg. Infusion of the secretagogue is continued and 15 minute samples of the gastric juice are taken for 4.5 hours. Each sample is measured to the nearest 0.5 mL and titratable acidity is determined by titrating a 1 mL sample to pH 7.0 with 0.2N NaOH, using an Autoburet and an electrometric pH meter '(Radiometer). Titratable acid output is calculated in microequivalents by multiplying the volume in milliliters by the acid concentration in milliequivalents per liter. Results are expressed as percent inhibition relative to control readings. Dose response curves are constructed and ED50 values are calculated by regression analyses. From 3 to 5 dogs are used at each dose level and a minimum of three dosage levels are utilized for determination of a dose response curve.

[1] = test system: HCl-Induced Formation of Gastric Lesions; test: HCl-induced gastric erosions in rats (modified method of Robert et al.); format: in vivo, Long Evans rats; details: for enhancement of the inhibitory effect by pepstatin: plus 20 mg/kg pepstatin
Protocol: In the tests described below, gastric erosions produced in rats by the oral instillation of 1.0 mL of 0.75N HC1 were compared with those in rats which had been pretreated with the most preferred compound of Formula I (of Example 1) or with that compound and pepstatin. Comparison tests utilizing pretreatment with the newer commercial product, ranitidine, and with ranitidine and pepstatin, are also shown. Ranitidine is about 4 and 6 times as potent as cimetidine as an inhibitor of gastric acid secretion by the oral route in the rat and dog, respectively.
A modification of the method of Robert et al., [Gastroenterology, 77, 433-443 (1979)] was employed to produce gastric erosions. Adult male, Long Evans rats weighing 280-300 g (Blue Spruce Farms, Alton, New York) were used. The animals were individually caged and food and water were removed 24 and 18 hours, respectively, prior to testing. On the following day, the test compound was administered orally to the animals 30 minutes before 1.0 mL of 0.75N HC1 was instilled into the stomach by gavage. Animals treated with the combination of the test compound and pepstatin received the test compound 30 minutes before, and a fixed amount of pepstatin (20 mg/kg po) 10 minutes before, the hydrochloric acid was administered. […] One hour after receiving the HC1 solution, the animals were sacrificed with an intraperitoneal injection of 0.2 mL of T-61®, a euthanasia solution (National Laboratories Corp.).
The stomachs were removed from the animals, cut along the greater curvature, opened, rinsed with saline and pinned out flat in a standard position for macroscopic examination and scoring of erosions. The stomachs were photographed with a Polaroid® Close Up camera (Polaroid Corporation) and scoring was determined from the photographs. For scoring purposes, only those erosions with a minimum length of 1 mm were considered. The severity of gastric ulceration was defined for each animal as the sum of the maximum continuous lengths (in mm) of the erosions satisfying the above criteria. Percent inhibition of lesion formation was defined as
(mm erosion, vehicle control') - (mm erosion, test agent) 100. (mm erosion, vehicle control)
Data were analyzed using the t-test for unpaired data' and ED50 values were calculated from the dose response data using probit analysis [Finney, Probit Analysis, 3rd ed., University Press, Cambridge, England (1971)].
The compound of Example 1 and ranitidine (synthesized by the Medicinal Chemistry Research Department of Bristol Laboratories, Division of.Bristol-Myers Company) were dissolved in one equivalent of HC1 and the pH adjusted to 5.5 with NaOH. A suspension of pepstatin (Banyu Pharmaceutical Co. Ltd.) in water was made by homogenizing the compound with a few drops of Tween-80® (Atlas Chemical Industries). Each of these compounds were administered orally by gavage in a volume of 2 mL/kg.

gastric acid secretion = test: Inhibition of gastric acid secretion relative to cimetidine, various animal studies; format: in vivo; details: inhibitors of gastric acid secretion, oral route
Protocol: Based on this potency difference, the oral dosage of the compounds of Examples 1 and 9 would be about 1/20 to 1/25 that of cimetidine, thus reducing the expected incidence of side effects. The usual oral dosage of cimetidine is 300 mg, given four times a day, while the usual dosage of the compounds of Examples 1 and 9 is about 12-15 mg, given four times a day. It was an object of this invention to further reduce the necessary dosage of the compounds of Formula I by the concomitant administration of a peptic activity- inhibitory amount of pepstatin. As will be shown below, such concomitant administration provides about a three-fold increase in potency compared with the administration of an equal amount of the compound of Formula I alone, thus permitting a further three-fold reduction in the dosage of the compound of Formula I.

Nc1c(NCCCOc2cccc(CN3CCCCC3)c2)c(=O)c1=O [Example 1]
ED50 (Heidenhain Pouch Dog; INTRAVENOUS): 0.024 µmol/kg
ED50 (Heidenhain Pouch Dog; ORAL): 0.16 µmol/kg
Potency Ratio [cimetidine = 1.0] (Heidenhain Pouch Dog; INTRAVENOUS): 87 (62-117)*
Potency Ratio [cimetidine = 1.0] (Heidenhain Pouch Dog; ORAL): 25 (14-40)
Potency Ratio ([1]; compound alone versus compound plus pepstatin (20 mg/kg po)): 3.5
enhancement of the inhibitory effect by pepstatin ([1]; Example 1 at 25 mg/kg): the difference was not statistically significant
enhancement of the inhibitory effect by pepstatin ([1]; Example 1 at 50 and 75 mg/kg, ranitidine at 25-100 mg/kg): significantly enhanced the inhibitory effect
formation of gastric erosions ([1]; pretreatment po, compound alone, Example 1 at 25, 50 or 75 mg/kg, ranitidine at 25, 50, 75 or 100 mg/kg): decreased the formation of gastric erosions in a dose-related manner
ED50 ([1]; rat, compound po 30 min before 1.0 mL 0.75N HCl, compound alone, probit analysis, read-out: ED50 (mg/kg) for Inhibition of Ulcer Formation, Alone): 115 mg/kg
ED50 (mg/kg) for Inhibition of Ulcer Formation, with Pepstatin ([1]; rat, compound po 30 min before and pepstatin 20 mg/kg po 10 min before 1.0 mL 0.75N HCl): 33 mg/kg
times more potent than cimetidine (gastric acid secretion): 20-25
